In the supplement of paper PMC4862054:
Where “and” joins values, the source holds several entries; their conditions need not be identical. Equal values may be shown once.

Key:
Details in all cases: incubation time: 72 h
CAL-148 [1] = experiment: normalised viability (% of control), CellTiter-Blue; higher = more viable cells (about 100 = DMSO control)
Method: (§1)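 DSRT, CellTiter-Blue viability, 72 h incubation. Signal is normalised to DMSO and benzethonium chloride controls. Value is the normalised response at dose 6.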

CAL-51 [2] = experiment: as above
Method: as §1

CAL-85-1 [3] = experiment: as above
Method: as §1

DU-4475 [4] = experiment: as above
Method: as §1

HDQ-P1 [5] = experiment: as above
Method: as §1

MDA-MB-453 [6] = experiment: as above
Method: as §1

CAL-148 [7] = experiment: as above; remark: listed apart in the source
Method: (§2)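 DSRT, CellTiter-Blue viability, 72 h incubation. Signal is normalised to DMSO and benzethonium chloride controls. Value is the normalised response at dose 7.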

CAL-51 [8] = experiment: as above; remark: listed apart in the source
Method: as §2

CAL-85-1 [9] = experiment: as above; remark: listed apart in the source
Method: as §2

DU-4475 [10] = experiment: as above; remark: listed apart in the source
Method: as §2

HDQ-P1 [11] = experiment: as above; remark: listed apart in the source
Method: as §2

MDA-MB-453 [12] = experiment: as above; remark: listed apart in the source
Method: as §2

CAL-148 [13] = experiment: as above; remark: listed apart in the source
Method: (§3)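 DSRT, CellTiter-Blue viability, 72 h incubation. Signal is normalised to DMSO and benzethonium chloride controls. Value is the normalised response at dose 8.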

CAL-51 [14] = experiment: as above; remark: listed apart in the source
Method: as §3

CAL-85-1 [15] = experiment: as above; remark: listed apart in the source
Method: as §3

DU-4475 [16] = experiment: as above; remark: listed apart in the source
Method: as §3

MDA-MB-453 [17] = experiment: as above; remark: listed apart in the source
Method: as §3

BT-474 [18] = experiment: normalised response (% of control), CellTox Green; higher = less cell death (100 = DMSO, 0 = benzethonium chloride kill control)
In short: (§4)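 In 384-well plates holding compound at 5 concentrations in 10-fold steps over a 10,000-fold range specific to each compound, breast cancer cell lines were seeded as 20 µl suspension and incubated 72 h. CellTox Green fluorescence was measured at 485/520 nm, after which CellTiter-Glo luminescence was measured following 10 min at room temperature. Plate signals were normalised to 0.1 % DMSO (100) and a positive kill control (0), and each value is the normalised signal at a single concentration.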

BT-549 [19] = experiment: as above
In short: as §4

CAL-120 [20] = experiment: as above
In short: as §4

CAL-148 [21] = experiment: as above
In short: as §4

CAL-51 [22] = experiment: as above
In short: as §4

CAL-85-1 [23] = experiment: as above
In short: as §4

DU-4475 [24] = experiment: as above
In short: as §4

HCC1143 [25] = experiment: as above
In short: as §4

HCC1599 [26] = experiment: as above
In short: as §4

HCC1937 [27] = experiment: as above
In short: as §4

HDQ-P1 [28] = experiment: as above
In short: as §4

Hs578T [29] = experiment: as above
In short: as §4

MCF-10A [30] = experiment: as above
In short: as §4

MDA-MB-231 [31] = experiment: as above
In short: as §4

MDA-MB-436 [32] = experiment: as above
In short: as §4

MDA-MB-453 [33] = experiment: as above
In short: as §4

MDA-MB-468 [34] = experiment: as above
In short: as §4

MFM-223 [35] = experiment: as above
In short: as §4

BT-474 [36] = experiment: normalised response (% of control), CellTiter-Glo; higher = more viable cells (100 = DMSO, 0 = benzethonium chloride kill control)
In short: as §4

BT-549 [37] = experiment: as above
In short: as §4

CAL-120 [38] = experiment: as above
In short: as §4

CAL-148 [39] = experiment: as above
In short: as §4

CAL-51 [40] = experiment: as above
In short: as §4

CAL-85-1 [41] = experiment: as above
In short: as §4

DU-4475 [42] = experiment: as above
In short: as §4

HCC1143 [43] = experiment: as above
In short: as §4

HCC1599 [44] = experiment: as above
In short: as §4

HCC1937 [45] = experiment: as above
In short: as §4

HDQ-P1 [46] = experiment: as above
In short: as §4

Hs578T [47] = experiment: as above
In short: as §4

MCF-10A [48] = experiment: as above
In short: as §4

MDA-MB-231 [49] = experiment: as above
In short: as §4

MDA-MB-436 [50] = experiment: as above
In short: as §4

MDA-MB-453 [51] = experiment: as above
In short: as §4

MDA-MB-468 [52] = experiment: as above
In short: as §4

MFM-223 [53] = experiment: as above
In short: as §4

SK-BR-3 = experiment: as above
In short: as §4

Cc1cccc(-c2nn3c(c2-c2ccnc4ccc(C(N)=O)cc24)CCC3)n1 (30 nM)
normalised viability (CAL-148 [1]): 89.8%
normalised viability (CAL-51 [2]): 103%
normalised viability (CAL-85-1 [3]): 96.7%
normalised viability (DU-4475 [4]): 95.8%
normalised viability (HDQ-P1 [5]): 100%
normalised viability (MDA-MB-453 [6]): 93.3%

Cn1cc(CNCC2CCN(c3ncc(C(=O)NO)cn3)CC2)c2ccccc21 (30 nM)
normalised viability (CAL-148 [1]): 24.2%
normalised viability (CAL-51 [2]): 70.1%
normalised viability (CAL-85-1 [3]): 38.9%
normalised viability (DU-4475 [4]): 29.3%
normalised viability (HDQ-P1 [5]): 37.5%
normalised viability (MDA-MB-453 [6]): 4.37%

Cc1cccc(-c2nn3c(c2-c2ccnc4ccc(C(N)=O)cc24)CCC3)n1 (100 nM)
normalised viability (CAL-148 [7]): 104%
normalised viability (CAL-51 [8]): 97.6%
normalised viability (CAL-85-1 [9]): 89.5%
normalised viability (DU-4475 [10]): 108%
normalised viability (HDQ-P1 [11]): 120%
normalised viability (MDA-MB-453 [12]): 93.4%

Cn1cc(CNCC2CCN(c3ncc(C(=O)NO)cn3)CC2)c2ccccc21 (100 nM)
normalised viability (CAL-148 [7]): 3.75%
normalised viability (CAL-51 [8]): 36.7%
normalised viability (CAL-85-1 [9]): 16.6%
normalised viability (DU-4475 [10]): 12.3%
normalised viability (HDQ-P1 [11]): 33.5%
normalised viability (MDA-MB-453 [12]): 2.32%

COc1ccc(-c2cc3c(C)nc(N)nc3n([C@H]3CC[C@H](OCCO)CC3)c2=O)cn1 (300 nM)
normalised viability (CAL-148 [1]): 42.2%
normalised viability (CAL-51 [2]): 30.1%
normalised viability (CAL-85-1 [3]): 49.9%
normalised viability (DU-4475 [4]): 65.8%
normalised viability (HDQ-P1 [5]): 18%
normalised viability (MDA-MB-453 [6]): 16.9%

O=C(NC[C@H](O)CO)c1ccncc1Nc1ccc(I)cc1F (300 nM)
normalised viability (CAL-148 [1]): 82.7%
normalised viability (CAL-51 [2]): 85.9%
normalised viability (CAL-85-1 [3]): 77.3%
normalised viability (DU-4475 [4]): 0.69%
normalised viability (HDQ-P1 [5]): 57.6%
normalised viability (MDA-MB-453 [6]): 98%

O=C(NC[C@H](O)CO)c1ccncc1Nc1ccc(I)cc1F (1000 nM)
normalised viability (CAL-148 [7]): 77.3%
normalised viability (CAL-51 [8]): 78.2%
normalised viability (CAL-85-1 [9]): 65.3%
normalised viability (DU-4475 [10]): 0.41%
normalised viability (HDQ-P1 [11]): 58.5%
normalised viability (MDA-MB-453 [12]): 77.4%

Nc1nc(=O)c2c([nH]1)NCC(CNc1ccc(C(=O)N[C@@H](CCC(=O)O)C(=O)O)cc1)N2C=O (mixture of isomers) [Folinic acid] (99 nM)
normalised viability (CAL-148 [7]): 97.8%
normalised viability (CAL-51 [8]): 93%
normalised viability (CAL-85-1 [9]): 87.2%
normalised viability (DU-4475 [10]): 104%
normalised viability (HDQ-P1 [11]): 134%
normalised viability (MDA-MB-453 [12]): 103%

O=S(=O)(c1cccc2cnccc12)N1CCCNCC1 [Fasudil] (1000 nM)
normalised viability (CAL-148 [7]): 90.7%
normalised viability (CAL-51 [8]): 115%
normalised viability (CAL-85-1 [9]): 101%
normalised viability (DU-4475 [10]): 120%
normalised viability (HDQ-P1 [11]): 111%
normalised viability (MDA-MB-453 [12]): 101%

CS(=O)(=O)N1CCN(Cc2cc3nc(-c4cccc5[nH]ncc45)nc(N4CCOCC4)c3s2)CC1 [GDC-0941] (1000 nM)
normalised viability (CAL-148 [7]): 54%
normalised viability (CAL-51 [8]): 39.5%
normalised viability (CAL-85-1 [9]): 58.4%
normalised viability (DU-4475 [10]): 105%
normalised viability (HDQ-P1 [11]): 25%
normalised viability (MDA-MB-453 [12]): 12%

COc1nc(N)nc2c1ncn2[C@@H]1O[C@H](CO)[C@@H](O)[C@@H]1O [Nelarabine] (300 nM)
normalised viability (CAL-148 [1]): 88.9% and 89.2%
normalised viability (CAL-51 [2]): 101% and 97.9%
normalised viability (CAL-85-1 [3]): 100% and 97.8%
normalised viability (DU-4475 [4]): 113% and 116%
normalised viability (MDA-MB-453 [6]): 102% and 99.1%

c1cc(CN2CCCNCCNCCCNCC2)ccc1CN1CCCNCCNCCCNCC1 [Plerixafor] (250 nM)
normalised viability (CAL-148 [7]): 84.4%
normalised viability (CAL-51 [8]): 105%
normalised viability (CAL-85-1 [9]): 94.3%
normalised viability (DU-4475 [10]): 97.2%
normalised viability (HDQ-P1 [11]): 121%
normalised viability (MDA-MB-453 [12]): 104%

CNC(=O)c1cc(Oc2ccc(NC(=O)Nc3ccc(Cl)c(C(F)(F)F)c3)cc2)ccn1 [Sorafenib] (300 nM)
normalised viability (CAL-148 [13]): 93.4% and 99%
normalised viability (CAL-51 [14]): 109% and 102%
normalised viability (CAL-85-1 [15]): 83.4% and 99.7%
normalised viability (DU-4475 [16]): 104% and 99.8%
normalised viability (MDA-MB-453 [17]): 96.8% and 108%

CCN(CC)CCNC(=O)c1c(C)[nH]c(/C=C2\C(=O)Nc3ccc(F)cc32)c1C [Sunitinib] (10 nM)
normalised response (BT-474 [18]): 100%
normalised response (BT-549 [19]): 92.9%
normalised response (CAL-120 [20]): 99.3%
normalised response (CAL-148 [21]): 105%
normalised response (CAL-51 [22]): 108%
normalised response (CAL-85-1 [23]): 89.5%
normalised response (DU-4475 [24]): 98.4%
normalised response (HCC1143 [25]): 57.7%
normalised response (HCC1599 [26]): 114%
normalised response (HCC1937 [27]): 66.9%
normalised response (HDQ-P1 [28]): 111%
normalised response (Hs578T [29]): 82.4%
normalised response (MCF-10A [30]): 109%
normalised response (MDA-MB-231 [31]): 104%
normalised response (MDA-MB-436 [32]): 103%
normalised response (MDA-MB-453 [33]): 107%
normalised response (MDA-MB-468 [34]): 141%
normalised response (MFM-223 [35]): 98%
normalised response (BT-474 [36]): 101%
normalised response (BT-549 [37]): 108%
normalised response (CAL-120 [38]): 109%
normalised response (CAL-148 [39]): 106%
normalised response (CAL-51 [40]): 98.8%
normalised response (CAL-85-1 [41]): 103%
normalised response (DU-4475 [42]): 104%
normalised response (HCC1143 [43]): 108%
normalised response (HCC1599 [44]): 96.3%
normalised response (HCC1937 [45]): 99.2%
normalised response (HDQ-P1 [46]): 99.3%
normalised response (Hs578T [47]): 103%
normalised response (MCF-10A [48]): 98.5%
normalised response (MDA-MB-231 [49]): 107%
normalised response (MDA-MB-436 [50]): 96.9%
normalised response (MDA-MB-453 [51]): 97.4%
normalised response (MDA-MB-468 [52]): 102%
normalised response (MFM-223 [53]): 105%
normalised response (SK-BR-3): 101%
